From publication PMC10384010, “Chromatographic Data in Statistical Analysis of BBB Permeability Indices” (Membranes, 2023)
Where two headings read alike, the source gives them in different places.

What was measured:
[1] = Normal-phase TLC on silica gel 60 F254 (Rf); format: physicochemical; conditions: water:methanol:acetonitrile 60:20:20, ammonium acetate pH 7.4
Method: (§1) The purity of the isolated substances was checked by TLC chromatography and densitometric scanning.
(§2) APIs were subjected to chromatographic in column (HPLC) and thin layer (TLC) formats. TLC chromatography was carried out on 20 cm × 20 cm glass plates by Merck, covered with silica gel and the addition of a fluorescent indicator. Merck TLC silica gel 60 F254 was used for the normal phase (NP). In the reverse phase (RP), RP-2 silanized plates were used (Merck TLC Silica gel 60 RP-2 F254, silanized). The mobile phase was buffered with ammonium acetate to pH 7.4 (LACH-NER, ammonium acetate).
(§3) Plates, after developing the chromatograms, were scanned using a densitometer (Desaga CD 60) with an analytical wavelength selected individually for drugs. The values of Rf (molecular descriptors: NP, RP) were determined.

[2] = Reversed-phase TLC on RP-2 silanized plates (Rf); format: physicochemical; conditions: silica gel 60 RP-2 F254 silanized; water:methanol:acetonitrile 60:20:20, ammonium acetate pH 7.4
Method: as §1, §2, §3

[3] = entering the CNS / not entering the CNS; ref Drugbank [36]; cited from earlier work
[4] = cited from earlier work
[5] = HPLC on IAM (immobilized artificial membrane) column, retention factor; format: physicochemical; conditions: IAM.PC.DD.2 column; for k(IAM) retention factor: 10 mM phosphate buffer pH 7.4:acetonitrile 80:20; for logkIAM: logarithm of retention factor, phosphate buffer pH 7.4:acetonitrile 80:20
Method: Chromatographic data also came from an experiment with a HPLC IAM (immobilized artificial membrane) column (Regis Technologies Inc.: IAM.PC.DD.2, 10 µm; 4.6 mm × 10 mm). The column contains a standard membrane consisting of a phospholipid bilayer. Organic solvents (acetonitrile and methanol) and water (J.T. Baker HPLC) were used in HPLC. Sigma phosphate buffered saline tablets were used to prepare the phosphate buffer. The mobile phase was a mixture of 10 mM phosphate buffer at pH 7.4 and acetonitrile in the ratio of 80:20 (v/v) [35]. The mobile phase flow was set at 0.5 mL/min; detection was carried out with a UV–Vis detector. The obtained values of the retention factor (k IAM) were transformed into a logarithmic form and entered into the statistical analysis (descriptor: log k IAM).

[6] = cited from earlier work; remark: listed apart in the source
[7] = plasma protein binding, given as fraction, ref Drugbank

SMILES	NP (Rf from NP TLC plate) [1]	RP (Rf from RP-2 TLC plate) [2]	CNS+/- [3]	Kp,uu,brain (unbound brain-to-plasma drug partition coefficient) [4]	k(IAM) retention factor [5]	logkIAM [5]	PB (protein binding) [6, 7]	PB (protein binding) ([6]; plasma)	Kp,uu,brain (unbound brain-to-plasma drug partition coefficient) ([4]; in vivo)
CN(C)CCC=C1c2ccccc2CCc2ccccc21 [amitriptyline]	0.32	0.67	1	1.33	–	–	–	–	–
NC(=O)N1c2ccccc2C=Cc2ccccc21 [carbamazepine]	0.95	0.83	1	0.76	1.50	0.18	–	–	–
CN(C)CCCN1c2ccccc2Sc2ccc(Cl)cc21 [chlorpromazine]	0.43	0.49	–	3.41	58.85	1.77	0.9	–	–
CN1CCN(C2=Nc3cc(Cl)ccc3Nc3ccccc32)CC1 [clozapine]	0.45	–	–	3.83	50.94	1.71	0.99	–	–
CN1C[C@H](C(=O)N[C@]2(C)O[C@@]3(O)[C@@H]4CCCN4C(=O)[C@H](Cc4ccccc4)N3C2=O)C[C@@H]2c3cccc4[nH]cc(c34)C[C@H]21 [dihydroergotamine]	0.72	0.78	0	–	–	–	–	0.93	0.02
CN(C)CCC=C1c2ccccc2COc2ccccc21 [doxepin]	0.3	–	1	3.11	–	–	0.755	–	–
CNCCC(Oc1ccc(C(F)(F)F)cc1)c1ccccc1 (centres unmarked) [fluoxetine]	0.68	0.54	–	5.23	66.64	1.82	0.945	–	–
NCC1(CC(=O)O)CCCCC1 [gabapentin]	–	–	–	0.44	–	–	0.03	–	–
O=C(CCCN1CCC(O)(c2ccc(Cl)cc2)CC1)c1ccc(F)cc1 [haloperidol]	0.66	0.61	–	1.77	23.74	1.38	0.92	–	–
Nc1nnc(-c2cccc(Cl)c2Cl)c(N)n1 [lamotrigine]	0.89	0.87	–	4.86	0.71	-0.15	–	–	–
CN1CCN2c3ccccc3Cc3ccccc3C2C1 (centres unmarked) [mianserin]	0.54	0.55	1	3.22	21.72	1.34	0.9	–	–
Cc1ncc2n1-c1ccc(Cl)cc1C(c1ccccc1F)=NC2 [midazolam]	0.82	0.66	1	1.08	5.69	0.76	–	–	–
CN1CCN2c3ncccc3Cc3ccccc3C2C1 (centres unmarked) [mirtazapine]	0.39	0.58	1	3.85	5.83	0.77	–	–	–
CC(=O)Nc1ccc(O)cc1 [paracetamol]	0.93	0.92	1	0.73	0.32	-0.49	0.25	–	–
Fc1ccc([C@@H]2CCNC[C@H]2COc2ccc3c(c2)OCO3)cc1 [paroxetine]	0.55	0.6	1	–	115.77	2.06	0.94	–	–
CCCN1C[C@H](CSC)C[C@@H]2c3cccc4[nH]cc(c34)C[C@H]21 [pergolide]	0.48	0.55	1	3.19	–	–	0.9	–	–
CCC[C@H](N[C@@H](C)C(=O)N1[C@H](C(=O)O)C[C@@H]2CCCC[C@@H]21)C(=O)OCC [perindopril]	0.47	0.57	0	–	0.18	-0.76	0.15	–	–
O=C1NC(=O)C(c2ccccc2)(c2ccccc2)N1 [phenytoin]	0.97	0.87	1	0.66	1.78	0.25	0.9	–	–
CN1C(C(=O)Nc2ccccn2)=C(O)c2ccccc2S1(=O)=O [piroxicam]	0.98	0.58	0	–	0.16	-0.79	0.99	–	–
CN(C)CCCN1c2ccccc2Sc2ccccc21 [promazine]	0.39	0.51	1	–	0.10	-1.02	0.94	–	–
CC(CN1c2ccccc2Sc2ccccc21)N(C)C (centres unmarked) [promethazine]	0.43	0.49	1	–	14.96	1.17	0.93	–	–
OCCOCCN1CCN(C2=Nc3ccccc3Sc3ccccc32)CC1 [quetiapine]	0.68	0.73	1	1.26	17.02	1.23	0.83	–	–
CCOC(=O)[C@H](CCc1ccccc1)N[C@@H](C)C(=O)N1Cc2ccccc2C[C@H]1C(=O)O [quinapril]	0.44	0.57	0	–	1.22	0.09	0.97	–	–
CN(C)CCc1c[nH]c2ccc(Cn3cncn3)cc12 [rizatriptan]	0.2	–	1	0.04	2.53	0.40	–	–	–
CSc1ccc2c(c1)N(CCC1CCCCN1C)c1ccccc1S2 (centres unmarked) [thioridazine]	0.47	0.4	1	3.5	47.61	1.68	–	–	–
O=c1n(CCCN2CCN(c3cccc(Cl)c3)CC2)nc2ccccn12 [trazodone]	0.71	0.76	1	1.54	9.30	0.97	0.92	–	–
CCCC(CCC)C(=O)O [valproic acid]	0.69	0.04	1	–	0.08	-1.09	0.85	–	–
COc1ccc(C(CN(C)C)C2(O)CCCCC2)cc1 (centres unmarked) [venlafaxine]	–	–	–	1.91	8.25	0.92	0.27	–	–
